Data on 37 compounds can be found in ChEMBL document CHEMBL5154799, “Discovery of a Novel Stilbene Derivative as a Microtubule Targeting Agent Capable of Inducing Cell Ferroptosis” (J Med Chem, 2022).

SMILES strings stand for the structures.

What all share (type): functional, cell-based
The test system of assay [1] is A2780. The experiment in a line: Antiproliferative activity against human A2780 cells assessed as cell viability incubated for 48 hrs by MTT assay. The following applies: A2780, 48 h.
Assay [2] has as its system A549. In words: Antiproliferative activity against human A549 cells assessed as cell viability incubated for 48 hrs by MTT assay. The following applies: A549, 48 h. On the technique in general: Formazan colour is commonly taken as a measure of viable cells.
Assay [3] concerns HeLa. In words: Antiproliferative activity against human HeLa cells assessed as cell viability incubated for 48 hrs by MTT assay.
In assay [4] the test system is HCT-8. In words: Antiproliferative activity against human HCT-8 cells assessed as cell viability incubated for 48 hrs by MTT assay. The following applies: HCT-8, 48 h.
Assay [5] deals with MCF7. The experiment in a line: Antiproliferative activity against human MCF7 cells assessed as cell viability incubated for 48 hrs by MTT assay. The following applies: MCF7, 48 h.

With `COc1ccc(C(=O)c2cc(OC)c(OC)c(OC)c2)c(NC(=O)CN)c1`, the IC50 was determined as 190 nM in assay [1]; 220 nM in assay [2]; 130 nM in assay [3]; 330 nM in assay [4]; 270 nM in assay [5].

For `COc1ccc(C(=O)c2ccc3c(c2)C=CC(C)(C)O3)c(NC(=O)CN)c1`, the IC50 in assay [1] worked out at 590 nM; in assay [2] it was 310 nM; in assay [3], 580 nM; in assay [4], 490 nM; in assay [5], 680 nM.

For the compound `C=C(c1cc(OC)c(OC)c(OC)c1)c1ccc(OC)cc1NC(=O)CN(C)C`, the IC50 came to 240 nM in assay [1]; 130 nM in assay [2]; 370 nM in assay [3]; 340 nM in assay [4]; 390 nM in assay [5].

In the case of `C=C(c1ccc(OC)cc1NC(=O)CNCC)c1ccc(OC)c2c1C=CC(C)(C)O2`, the IC50 in assay [1] came to 2010 nM; in assay [2] it was 1870 nM; in assay [3], 2590 nM; in assay [4] it was 3050 nM; in assay [5], 2920 nM.

Consider `C=C(c1cc(OC)c(OC)c(OC)c1)c1ccc(OC)cc1NC(=O)CNCC`, for which the IC50 in assay [1] is 450 nM; in assay [2] it was 260 nM; in assay [3], 430 nM; in assay [4], 590 nM; in assay [5], 860 nM.

As for `C=C(c1cc(OC)c(OC)c(OC)c1)c1ccc(OC)cc1NC(=O)CO`, the IC50 in assay [1] came to 30 nM; in assay [2], 20 nM; in assay [3], 30 nM; in assay [4], 40 nM; in assay [5] it was 110 nM.

Regarding `C=C(c1ccc(OC)cc1NC(=O)CN(C)C)c1ccc(OC)c2c1OC(C)(C)C=C2`, the IC50 stood at 420 nM in assay [1]; 270 nM in assay [2]; 900 nM in assay [3]; 690 nM in assay [4]; 500 nM in assay [5].

For the compound `C=C(c1cc(OC)c(OC)c(OC)c1)c1ccc(OC)cc1NC(=O)CN`, the IC50 in assay [1] amounted to 30 nM; in assay [2], 40 nM; in assay [3] it was 70 nM; in assay [4] it was 60 nM; in assay [5] it was 190 nM.

As to `CNCC(=O)Nc1cc(OC)ccc1C(=O)c1ccc(OC)c2c1C=CC(C)(C)O2`, the IC50 is 1590 nM in assay [1]; 1370 nM in assay [2]; 2170 nM in assay [3]; 3460 nM in assay [4]; 3040 nM in assay [5].

`C=C(c1ccc2c(c1)C=CC(C)(C)O2)c1ccc(OC)cc1NC(=O)CN`: the IC50 stood at 140 nM in assay [1]; 60 nM in assay [2]; 160 nM in assay [3]; 220 nM in assay [4]; 420 nM in assay [5].

Consider `C=C(c1ccc(OC)cc1NC(=O)CN)c1ccc(OC)c2c1OC(C)(C)C=C2`, for which the IC50 was 80 nM in assay [1]; 50 nM in assay [2]; 120 nM in assay [3]; 190 nM in assay [4]; 220 nM in assay [5].

Consider `C=C(c1cc(OC)c(OC)c(OC)c1)c1ccc(OC)c(O)c1NC(=O)CN(C)C`, for which the half-inhibitory concentration (IC50) in assay [1] was found to be 90 nM; in assay [2], 50 nM; in assay [3] it was 120 nM; in assay [4], 110 nM; in assay [5], 210 nM.

Turning to `COc1ccc(C(=O)c2ccc(OC)c3c2C=CC(C)(C)O3)c(NC(=O)CO)c1`, the IC50 was 420 nM in assay [1]; 100 nM in assay [2]; 310 nM in assay [3]; 630 nM in assay [4]; 940 nM in assay [5].

For the compound `CCNCC(=O)Nc1cc(OC)ccc1C(=O)c1ccc2c(c1)C=CC(C)(C)O2`, the IC50 in assay [1] is 2070 nM; in assay [2] it was 1300 nM; in assay [3] it was 3110 nM; in assay [4] it was 3990 nM; in assay [5], 6310 nM.

As for `C=C(c1ccc2c(c1)C=CC(C)(C)O2)c1ccc(OC)cc1NC(=O)CO`, the IC50 in assay [1] is 110 nM; in assay [2], 40 nM; in assay [3], 100 nM; in assay [4], 220 nM; in assay [5], 390 nM.

Regarding `COc1ccc(C(=O)c2ccc3c(c2)C=CC(C)(C)O3)c(NC(=O)CN(C)C)c1`, the IC50 amounted to 1020 nM in assay [1]; 1160 nM in assay [2]; 1260 nM in assay [3]; 2420 nM in assay [4]; 3560 nM in assay [5].

With `C=C(c1ccc(OC)cc1NC(=O)CNC)c1ccc(OC)c2c1C=CC(C)(C)O2`, the IC50 was 720 nM in assay [1]; 320 nM in assay [2]; 500 nM in assay [3]; 980 nM in assay [4]; 1010 nM in assay [5].

Turning to `C=C(c1ccc2c(c1)C=CC(C)(C)O2)c1ccc(OC)cc1NC(=O)CN(C)C`, the IC50 in assay [1] turned out to be 510 nM; in assay [2], 430 nM; in assay [3], 640 nM; in assay [4] it was 690 nM; in assay [5], 940 nM.

Consider `C=C(c1ccc(OC)cc1NC(=O)CNCC)c1ccc(OC)c2c1OC(C)(C)C=C2`, for which the IC50 in assay [1] is 1030 nM; in assay [2], 970 nM; in assay [3], 1090 nM; in assay [4] it was 1380 nM; in assay [5], 2100 nM.

With `COc1ccc(C(C)c2cc(OC)c(OC)c(OC)c2)c(NC(=O)CO)c1O` (stereo not given), the IC50 is 280 nM in assay [1]; 180 nM in assay [2]; 390 nM in assay [3]; 590 nM in assay [4]; 790 nM in assay [5].

Regarding `CNCC(=O)Nc1cc(OC)ccc1C(=O)c1ccc2c(c1)C=CC(C)(C)O2`, the half-inhibitory concentration (IC50) in assay [1] turned out to be 850 nM; in assay [2], 800 nM; in assay [3], 970 nM; in assay [4] it was 1010 nM; in assay [5] it was 1210 nM.

For `C=C(c1ccc(OC)cc1NC(=O)CN)c1ccc(OC)c2c1C=CC(C)(C)O2`, the IC50 in assay [1] was 400 nM; in assay [2] it was 90 nM; in assay [3], 200 nM; in assay [4], 520 nM; in assay [5] it was 780 nM.

For `COc1ccc(C(=O)c2ccc(OC)c3c2C=CC(C)(C)O3)c(NC(=O)CN(C)C)c1`, the IC50 in assay [1] was 3990 nM; in assay [2], 1850 nM; in assay [3], 3620 nM; in assay [4] it was 5660 nM; in assay [5] it was 6530 nM.

Consider `COc1ccc(C(=O)c2ccc(OC)c3c2OC(C)(C)C=C3)c(NC(=O)CBr)c1`, for which the IC50 amounted to 980 nM in assay [1]; 1210 nM in assay [2]; 2140 nM in assay [3]; 3250 nM in assay [4]; 2360 nM in assay [5].

As to `C=C(c1ccc(OC)cc1NC(=O)CN(C)C)c1ccc(OC)c2c1C=CC(C)(C)O2`, the IC50 in assay [1] amounted to 670 nM; in assay [2], 550 nM; in assay [3], 790 nM; in assay [4], 1920 nM; in assay [5], 2580 nM.

In the case of `CNCC(=O)Nc1cc(OC)ccc1C(=O)c1cc(OC)c(OC)c(OC)c1`, the IC50 came to 580 nM in assay [1]; 610 nM in assay [2]; 690 nM in assay [3]; 780 nM in assay [4]; 550 nM in assay [5].

Turning to `C=C(c1cc(OC)c(OC)c(OC)c1)c1ccc(OC)cc1NC(=O)CNC`, the 50% inhibitory concentration (IC50) in assay [1] is 140 nM; in assay [2] it was 100 nM; in assay [3] it was 140 nM; in assay [4], 190 nM; in assay [5], 240 nM.

For the compound `COc1ccc(C(=O)c2ccc3c(c2)C=CC(C)(C)O3)c(NC(=O)CBr)c1`, the IC50 in assay [1] was found to be 1870 nM; in assay [2] it was 1980 nM; in assay [3], 3050 nM; in assay [4], 3260 nM; in assay [5], 2880 nM.

`COc1ccc(C(=O)c2ccc3c(c2)C=CC(C)(C)O3)c(NC(=O)CO)c1`: the IC50 was 130 nM in assay [1]; 90 nM in assay [2]; 240 nM in assay [3]; 250 nM in assay [4]; 200 nM in assay [5].

Consider `CNCC(=O)Nc1cc(OC)ccc1C(=O)c1ccc(OC)c2c1OC(C)(C)C=C2`, for which the IC50 came out at 620 nM in assay [1]; 620 nM in assay [2]; 870 nM in assay [3]; 740 nM in assay [4]; 820 nM in assay [5].

Take `COc1ccc(C(=O)c2ccc(OC)c3c2C=CC(C)(C)O3)c(NC(=O)CN)c1`: the IC50 in assay [1] was 890 nM; in assay [2], 420 nM; in assay [3], 100 nM; in assay [4] it was 1050 nM; in assay [5] it was 1250 nM.

Take `C=C(c1ccc(OC)cc1NC(=O)CO)c1ccc(OC)c2c1C=CC(C)(C)O2`: the IC50 stood at 280 nM in assay [1]; 70 nM in assay [2]; 100 nM in assay [3]; 470 nM in assay [4]; 590 nM in assay [5].

Regarding `COc1ccc(C(=O)c2ccc(OC)c3c2OC(C)(C)C=C3)c(NC(=O)CN(C)C)c1`, the IC50 in assay [1] came out at 790 nM; in assay [2], 890 nM; in assay [3], 1050 nM; in assay [4], 1590 nM; in assay [5] it was 2680 nM.

For `C=C(c1ccc2c(c1)C=CC(C)(C)O2)c1ccc(OC)cc1NC(=O)CNC`, the IC50 came out at 320 nM in assay [1]; 200 nM in assay [2]; 410 nM in assay [3]; 590 nM in assay [4]; 720 nM in assay [5].

Regarding `COc1ccc(/C=C/C(=O)c2ccc(OC)c3c2OC(C)(C)C=C3)cc1` [MILLEPACHINE], the IC50 in assay [1] amounted to 3090 nM; in assay [2] it was 3950 nM; in assay [3] it was 6030 nM; in assay [4], 5020 nM; in assay [5], 6980 nM.

Turning to `CCNCC(=O)Nc1cc(OC)ccc1C(=O)c1cc(OC)c(OC)c(OC)c1`, the IC50 was 950 nM in assay [1]; 750 nM in assay [2]; 2100 nM in assay [3]; 1560 nM in assay [4]; 1050 nM in assay [5].

With `C=C(c1cc(OC)c(OC)c(OC)c1)c1ccc(OC)c(O)c1NC(=O)COCC`, the IC50 turned out to be 1230 nM in assay [1]; 880 nM in assay [2]; 690 nM in assay [3]; 910 nM in assay [4]; 1050 nM in assay [5].

Broadly, the IC50 is the concentration that gives 50% inhibition.
